Data: ChEMBL document CHEMBL1201862, “PubChem BioAssay data set” (2004)
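Tested at 5 concentrations; 48 h exposure; 96-well plates; endpoints linearly interpolated, else capped at highest concentration. At the GI50, growth is halved.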 Activity calls are given as the source filed them. No stated cut-off is given here; in the data, active = GI50 up to about 1.1 µM and inactive = higher. Non-standard residues stand in square brackets, D forms with d. Residues, ends and D or L forms follow the SMILES beside them. ξ: configuration not given here. *: point of attachment. NMeF = CN[C@@H](Cc1ccccc1)C(=O)O; ξNMeV = CNC(C(=O)O)C(C)C; Boc = CC(C)(C)OC(=O)*; OBn = c1ccc(CO*)cc1

Experiments:
Test in all cases: NCI-60 cell line screen, 48 h
[1] = tested on: UACC-62
[2] = tested on: U-251
[3] = tested on: ACHN
[4] = tested on: UACC-257
[5] = tested on: SR
[6] = tested on: UO-31
[7] = tested on: COLO 205
[8] = tested on: A549
[9] = tested on: OVCAR-4
[10] = tested on: PC-3
[11] = tested on: 786-0
[12] = tested on: MOLT-4
[13] = tested on: NCI-H226
[14] = tested on: MDA-MB-231
[15] = tested on: Hs-578T
[16] = tested on: Malme-3M
[17] = tested on: OVCAR-3
[18] = tested on: T47D
[19] = tested on: HL-60

Row | Compound | GI50 [1] | GI50 [2] | GI50 [3] | GI50 [4] | GI50 [5] | GI50 [6] | GI50 [7] | GI50 [8] | GI50 [9] | GI50 [10] | GI50 [11] | GI50 [12] | GI50 [13] | GI50 [14] | GI50 [15] | GI50 [16] | GI50 [17] | GI50 [18] | GI50 [19]
1 | Cc1ccccc1C1OC1C(=O)c1ccccc1N (stereo unspecified) | 52.8 µM (inactive) | > 100 µM (inactive) | > 100 µM (inactive) | 74.3 µM (inactive) | > 100 µM (inactive) | 78.7 µM (inactive) | 87.3 µM (inactive) | 48 µM (inactive) | 47.5 µM (inactive) | 46.6 µM (inactive) | 59.4 µM (inactive) | 39.3 µM (inactive) | > 100 µM (inactive) | 31.6 µM (inactive) |  |  |  |  | 
2 | O=C(CCCN1CCC2(CC1)/C(=N/C1CCCCC1)NC(=O)N2c1ccccc1)c1ccc(F)cc1 | 22.3 µM (inactive) | 33.1 µM (inactive) | 31.7 µM (inactive) | 21.5 µM (inactive) | 16.7 µM (inactive) |  | 16.1 µM (inactive) | 44.4 µM (inactive) | 31.7 µM (inactive) | 21.6 µM (inactive) | 20.8 µM (inactive) | 21.9 µM (inactive) | 14.9 µM (inactive) | 12.4 µM (inactive) | 33.4 µM (inactive) | 12.7 µM (inactive) | 11.6 µM (inactive) | 29.9 µM (inactive) | 23.1 µM (inactive)
3 | Cc1cccc2c(N)c3cccc(C(=O)NCC[N+](C)(C)Cc4ccccc4[N+](=O)[O-])c3nc12 | 8.05 µM (inactive) | 5 µM (inactive) | 2.31 µM (inactive) | 24.3 µM (inactive) | 0.258 µM (active) | 13.4 µM (inactive) | 9.02 µM (inactive) | 2.24 µM (inactive) | 8.32 µM (inactive) | 7.14 µM (inactive) | 4.22 µM (inactive) | 1.09 µM (active) | 3.94 µM (inactive) | 13.6 µM (inactive) | 6.35 µM (inactive) | 6.76 µM (inactive) | 18 µM (inactive) | 14.2 µM (inactive) | 
4 | COc1cc2oc(=O)cc(C)c2c(OC)c1OC(C)=O | > 100 µM (inactive) | > 100 µM (inactive) | > 100 µM (inactive) | > 100 µM (inactive) | > 100 µM (inactive) | > 100 µM (inactive) | > 100 µM (inactive) | > 100 µM (inactive) | > 100 µM (inactive) | > 100 µM (inactive) | > 100 µM (inactive) | > 100 µM (inactive) | > 100 µM (inactive) | > 100 µM (inactive) | > 100 µM (inactive) | > 100 µM (inactive) | > 100 µM (inactive) |  | 
5 | C=CCCCCCC(O)C(O)C/C=C\C/C=C\CC (stereo unspecified) | > 18.8 µM (inactive) | > 18.8 µM (inactive) | > 18.8 µM (inactive) | > 18.8 µM (inactive) | > 9.66 µM (inactive) | > 18.8 µM (inactive) | > 18.8 µM (inactive) | > 18.8 µM (inactive) | > 18.8 µM (inactive) |  | > 18.8 µM (inactive) | > 14.9 µM (inactive) | > 18.8 µM (inactive) |  |  | > 18.8 µM (inactive) | > 18.8 µM (inactive) |  | > 7.71 µM (inactive)
6 | O=C(O)CCC1(CCC(=O)O)CCCCCCCCC(CCC(=O)O)(CCC(=O)O)C(=O)C1=O | > 100 µM (inactive) | > 100 µM (inactive) | > 100 µM (inactive) | > 100 µM (inactive) | 84.9 µM (inactive) |  | > 100 µM (inactive) | > 100 µM (inactive) | > 100 µM (inactive) | > 100 µM (inactive) | > 100 µM (inactive) |  | > 100 µM (inactive) |  | > 100 µM (inactive) | > 100 µM (inactive) | > 100 µM (inactive) | > 100 µM (inactive) | > 100 µM (inactive)
7 | O=C1c2ccccc2C2=Cc3ccccc3C(O)N12 (stereo unspecified) | 24.9 µM (inactive) | > 100 µM (inactive) | > 100 µM (inactive) | > 100 µM (inactive) | 25.8 µM (inactive) | 18.1 µM (inactive) | > 100 µM (inactive) | > 100 µM (inactive) | > 100 µM (inactive) | > 100 µM (inactive) | > 100 µM (inactive) | 34 µM (inactive) | > 100 µM (inactive) | > 100 µM (inactive) | 68.4 µM (inactive) | > 100 µM (inactive) | > 100 µM (inactive) | 70.5 µM (inactive) | 26.2 µM (inactive)
8 | CCOC(=O)c1cnc2[nH]c(=O)c3ccccc3n2c1=O | > 100 µM (inactive) | > 100 µM (inactive) | > 100 µM (inactive) | > 100 µM (inactive) | > 100 µM (inactive) | > 100 µM (inactive) | > 100 µM (inactive) | > 100 µM (inactive) | > 100 µM (inactive) |  | > 100 µM (inactive) | > 100 µM (inactive) | > 100 µM (inactive) |  |  | > 100 µM (inactive) | > 100 µM (inactive) |  | 85.5 µM (inactive)
9 | COC1=C(NC(C)=O)C(=O)c2nc3n(c2C1=O)CCC3 | 18.2 µM (inactive) | 23.8 µM (inactive) | 19.9 µM (inactive) | 16.6 µM (inactive) | 36.9 µM (inactive) | 24.9 µM (inactive) | 21.4 µM (inactive) | 27.3 µM (inactive) | 16.7 µM (inactive) | 34.8 µM (inactive) | 19.5 µM (inactive) | 4.06 µM (inactive) | 26.7 µM (inactive) | 13.3 µM (inactive) | 30.8 µM (inactive) | 20.4 µM (inactive) | 15.7 µM (inactive) | 34.3 µM (inactive) | 10.1 µM (inactive)
10 | CC(=O)NC(CCCOC(C)=O)C(=O)NC(CCCOC(C)=O)C(=O)NC(CCCOC(C)=O)C(=O)NC(Cc1ccc([N+](=O)[O-])cc1)C(=O)NCC(=O)OCc1ccccc1 (stereo unspecified) | > 100 µM (inactive) | > 100 µM (inactive) | > 100 µM (inactive) | > 100 µM (inactive) | 74 µM (inactive) | > 100 µM (inactive) | > 100 µM (inactive) | > 100 µM (inactive) | > 100 µM (inactive) | > 100 µM (inactive) | > 100 µM (inactive) | > 100 µM (inactive) | > 100 µM (inactive) | > 100 µM (inactive) | > 100 µM (inactive) | > 100 µM (inactive) | > 100 µM (inactive) | > 100 µM (inactive) | 
11 | N#CC1Nc2ccccc2[C@@H](O)C1O (stereo partly specified) | > 100 µM (inactive) | > 100 µM (inactive) | > 100 µM (inactive) | > 100 µM (inactive) | > 100 µM (inactive) |  | > 100 µM (inactive) | > 100 µM (inactive) | > 100 µM (inactive) | > 100 µM (inactive) | > 100 µM (inactive) | > 100 µM (inactive) |  | > 100 µM (inactive) | > 100 µM (inactive) | > 100 µM (inactive) | > 100 µM (inactive) | > 100 µM (inactive) | > 100 µM (inactive)
12 | CC(C)C(C(=O)N1CCC[C@@H]1C(=O)OCc1ccccc1)N(C)C(=O)C(C(C)C)N(C)C(=O)[C@H](Cc1ccccc1)N(C)C(=O)[C@H](NC(=O)OC(C)(C)C)C(C)C (stereo partly specified) (Boc-[dV][NMeF][ξNMeV][ξNMeV][dP]-OBn) | > 100 µM (inactive) | > 100 µM (inactive) | 16.7 µM (inactive) | 13.6 µM (inactive) | > 29.8 µM (inactive) | > 29.2 µM (inactive) | > 100 µM (inactive) | 6.55 µM (inactive) | > 54.2 µM (inactive) |  | > 100 µM (inactive) | 7.94 µM (inactive) | > 100 µM (inactive) |  |  | > 89.5 µM (inactive) | > 56.6 µM (inactive) |  | 4.12 µM (inactive)
